The results in this text go back to ChEMBL document CHEMBL1799927, “Discovery of imidazo[1,2-a]pyrazine-based Aurora kinase inhibitors” (Bioorg Med Chem Lett, 2010).

In brackets after ≈: the same amount, converted by molar mass. A value given as a limit tells only on which side of the number the result lay.

The target of data set [1] is Aurora kinase B (Homo sapiens, UniProt Q96GD4). Put plainly: Inhibition of aurora B kinase using 5TAMRA-GRTGRRNSICOOH as substrate by fluorescent assay.
In data set [2] the target is T1, Aurora kinase A (Homo sapiens, UniProt O14965).
T1 sequence (O14965 whole entry): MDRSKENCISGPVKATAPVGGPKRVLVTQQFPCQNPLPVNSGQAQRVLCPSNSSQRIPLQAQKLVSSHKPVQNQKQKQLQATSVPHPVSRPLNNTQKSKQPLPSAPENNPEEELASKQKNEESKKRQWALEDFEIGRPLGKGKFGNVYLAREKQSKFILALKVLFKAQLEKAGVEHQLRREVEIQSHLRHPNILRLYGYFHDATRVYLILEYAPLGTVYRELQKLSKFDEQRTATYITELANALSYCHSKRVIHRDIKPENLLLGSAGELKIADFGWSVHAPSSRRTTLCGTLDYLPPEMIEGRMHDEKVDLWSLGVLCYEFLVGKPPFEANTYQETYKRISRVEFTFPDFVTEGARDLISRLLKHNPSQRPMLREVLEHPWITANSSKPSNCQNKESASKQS
Put plainly: Inhibition of aurora A kinase using 5TAMRA-GRTGRRNSICOOH as substrate by fluorescent assay.

Data set [3] in a line: cells. Conditions: Homo sapiens, HCT-116, 1 h; call rule not given here. The format is cell-based.
Data set [4] deals with Mitogen-activated protein kinase 1 (Homo sapiens, UniProt P28482). Nature of the data set: Inhibition of ERK2.
The target of data set [5] is Interleukin-1 receptor-associated kinase 4 (Homo sapiens, UniProt Q9NWZ3). Put plainly: Inhibition of IRAK4.
In data set [6] the target is Serine/threonine-protein kinase Chk1 (Homo sapiens, UniProt O14757). Put plainly: Inhibition of Chk1.
Data set [7] deals with Calcium/calmodulin-dependent protein kinase type IV (Homo sapiens, UniProt Q16566). Put plainly: Inhibition of Camk4.
Sequence of Calcium/calmodulin-dependent protein kinase type IV (Q16566 whole entry): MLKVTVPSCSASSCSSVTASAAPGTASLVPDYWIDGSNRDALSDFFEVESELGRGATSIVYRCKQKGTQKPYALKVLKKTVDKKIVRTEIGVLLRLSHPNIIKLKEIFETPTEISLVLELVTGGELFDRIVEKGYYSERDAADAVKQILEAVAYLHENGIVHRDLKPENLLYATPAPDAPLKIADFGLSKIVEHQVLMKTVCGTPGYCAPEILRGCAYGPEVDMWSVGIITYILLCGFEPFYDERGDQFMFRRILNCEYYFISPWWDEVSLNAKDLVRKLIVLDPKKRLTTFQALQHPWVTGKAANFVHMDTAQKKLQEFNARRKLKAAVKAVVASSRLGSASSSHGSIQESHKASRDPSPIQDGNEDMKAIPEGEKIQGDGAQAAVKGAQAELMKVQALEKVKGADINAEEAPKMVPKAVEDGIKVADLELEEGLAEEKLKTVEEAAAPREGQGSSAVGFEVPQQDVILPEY
Data set [8] has as its target RAC-alpha serine/threonine-protein kinase (Homo sapiens, UniProt P31749). Nature of the data set: Inhibition of Akt1.
The nature of data set [9]: Oral bioavailability in mouse. The format is ADME, organism-based. Conditions: in vivo.
The nature of data set [10]: Aqueous solubility of the compound. The format is physicochemical. As to conditions: buffer.
Data set [11] can be described thus: Clearance in mouse. The format is ADME, organism-based. Conditions: in vivo.
The nature of data set [12]: Clearance in human hepatocytes assessed per million cells. The format is ADME, cell-based, Liver, Hepatocyte.
A short description of data set [13]: Permeability across apical to basolateral side in human Caco2 cell membrane. The format is ADME, cell-based. Conditions: Caco-2, read-out: permeability.
The nature of data set [14]: Plasma protein binding in human. It counts as ADME, cell-free. Conditions: read-out: PPB (converted).
In data set [15] the target is hERG (KCNH2) (Homo sapiens, UniProt Q12809). Put plainly: Inhibition of human ERG assessed as Rb efflux at 1.5 ug/ml.
The target of data set [16] is Cytochrome P450 2C9 (Homo sapiens, UniProt P11712). Nature of the data set: inhibition of CYP2C9. The format is ADME.
Sequence of Cytochrome P450 2C9 (P11712 whole entry): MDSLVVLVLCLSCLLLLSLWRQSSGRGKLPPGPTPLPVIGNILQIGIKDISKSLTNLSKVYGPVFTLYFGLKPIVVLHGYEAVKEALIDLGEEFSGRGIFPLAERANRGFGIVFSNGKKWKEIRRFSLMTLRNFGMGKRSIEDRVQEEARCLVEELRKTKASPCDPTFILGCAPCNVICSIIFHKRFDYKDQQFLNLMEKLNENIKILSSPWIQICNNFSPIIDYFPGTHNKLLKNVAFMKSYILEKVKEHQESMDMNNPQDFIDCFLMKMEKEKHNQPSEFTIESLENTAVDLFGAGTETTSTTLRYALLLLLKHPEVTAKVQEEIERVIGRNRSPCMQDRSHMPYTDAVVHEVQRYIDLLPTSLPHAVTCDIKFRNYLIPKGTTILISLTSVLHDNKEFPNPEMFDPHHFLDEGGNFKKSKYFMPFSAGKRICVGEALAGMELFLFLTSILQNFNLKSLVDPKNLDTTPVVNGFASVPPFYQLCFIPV
For data set [17], the target named is Cytochrome P450 2D6 (Homo sapiens, UniProt P10635). Nature of the data set: inhibition of CYP2D6. It counts as ADME.
Data set [18] addresses Cytochrome P450 3A4 (Homo sapiens, UniProt P08684). Put plainly: inhibition of CYP3A4. It counts as ADME.
A short description of data set [19]: Inhibition of IGRF.
For data set [20], the target named is Inhibitor of nuclear factor kappa-B kinase subunit beta (Homo sapiens, UniProt O14920). Put plainly: Inhibition of IKKb.
Sequence of Inhibitor of nuclear factor kappa-B kinase subunit beta (O14920 whole entry): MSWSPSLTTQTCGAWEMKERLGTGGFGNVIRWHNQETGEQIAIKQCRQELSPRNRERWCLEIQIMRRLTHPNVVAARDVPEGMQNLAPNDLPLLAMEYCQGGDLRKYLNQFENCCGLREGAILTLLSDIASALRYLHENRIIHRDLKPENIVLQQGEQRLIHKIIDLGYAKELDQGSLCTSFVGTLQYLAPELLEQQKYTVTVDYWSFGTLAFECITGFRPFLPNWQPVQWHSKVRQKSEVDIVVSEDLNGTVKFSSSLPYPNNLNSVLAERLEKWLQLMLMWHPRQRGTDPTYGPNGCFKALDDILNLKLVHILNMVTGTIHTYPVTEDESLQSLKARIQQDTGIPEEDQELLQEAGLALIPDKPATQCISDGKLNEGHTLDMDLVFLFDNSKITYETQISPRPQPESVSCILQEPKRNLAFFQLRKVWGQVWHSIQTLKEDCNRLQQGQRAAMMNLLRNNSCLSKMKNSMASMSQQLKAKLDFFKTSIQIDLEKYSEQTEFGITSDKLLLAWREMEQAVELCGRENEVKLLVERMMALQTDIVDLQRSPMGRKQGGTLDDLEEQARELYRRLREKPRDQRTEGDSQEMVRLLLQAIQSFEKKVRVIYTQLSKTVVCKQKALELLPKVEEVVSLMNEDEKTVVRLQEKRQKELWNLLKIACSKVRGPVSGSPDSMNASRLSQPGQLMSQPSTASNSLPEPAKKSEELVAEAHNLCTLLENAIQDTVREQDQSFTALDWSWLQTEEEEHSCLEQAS
Data set [21] has as its target Tyrosine-protein kinase JAK2 (Homo sapiens, UniProt O60674). Put plainly: Inhibition of Jak2.
Data set [22] addresses Tyrosine-protein kinase Lck (Homo sapiens, UniProt P06239). Nature of the data set: Inhibition of LCK.
The target in data set [23] is Hepatocyte growth factor receptor (Homo sapiens, UniProt P08581). Nature of the data set: Inhibition of cMet.
Data set [24] has as its target Serine/threonine-protein kinase 3 (Homo sapiens, UniProt Q13188). Put plainly: Inhibition of MST2.
In data set [25] the target is Protein kinase C alpha type (Homo sapiens, UniProt P17252). Nature of the data set: Inhibition of PKCa.
Data set [26] concerns the target Serine/threonine-protein kinase PLK3 (Homo sapiens, UniProt Q9H4B4). Put plainly: Inhibition of PLK3.
The target in data set [27] is Rho-associated protein kinase 2 (Homo sapiens, UniProt O75116). Put plainly: Inhibition of Rock2.
The target in data set [28] is Ribosomal protein S6 kinase alpha-3 (Homo sapiens, UniProt P51812). Nature of the data set: Inhibition of RSK2.
In data set [29] the target is Testis-specific serine/threonine-protein kinase 2 (Homo sapiens, UniProt Q96PF2). Put plainly: Inhibition of TSSK2.
Sequence of Testis-specific serine/threonine-protein kinase 2 (Q96PF2 whole entry): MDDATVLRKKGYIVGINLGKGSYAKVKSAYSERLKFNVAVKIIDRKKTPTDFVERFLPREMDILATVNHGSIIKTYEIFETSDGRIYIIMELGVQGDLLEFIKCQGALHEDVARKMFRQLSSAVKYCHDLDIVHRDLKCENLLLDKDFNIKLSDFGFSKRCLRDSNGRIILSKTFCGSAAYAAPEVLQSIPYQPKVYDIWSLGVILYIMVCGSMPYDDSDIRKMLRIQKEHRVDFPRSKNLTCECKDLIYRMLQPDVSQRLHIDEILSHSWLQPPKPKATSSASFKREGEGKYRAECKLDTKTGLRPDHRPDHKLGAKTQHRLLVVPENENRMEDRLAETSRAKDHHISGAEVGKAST
The target in data set [30] is Vascular endothelial growth factor receptor 2 (Homo sapiens, UniProt P35968). Nature of the data set: Inhibition of VEGFR2.

Sequence of Aurora kinase B (Q96GD4 whole entry): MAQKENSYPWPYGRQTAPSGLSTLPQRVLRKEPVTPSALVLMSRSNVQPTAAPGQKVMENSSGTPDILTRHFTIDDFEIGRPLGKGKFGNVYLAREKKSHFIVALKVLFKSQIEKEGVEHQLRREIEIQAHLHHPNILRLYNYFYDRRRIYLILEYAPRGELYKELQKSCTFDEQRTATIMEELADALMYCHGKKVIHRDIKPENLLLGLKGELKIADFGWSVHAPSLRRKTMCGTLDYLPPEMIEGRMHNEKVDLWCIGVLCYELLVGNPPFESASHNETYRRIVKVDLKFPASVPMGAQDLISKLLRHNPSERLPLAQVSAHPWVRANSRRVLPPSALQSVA
Sequence of Tyrosine-protein kinase Lck (P06239 whole entry): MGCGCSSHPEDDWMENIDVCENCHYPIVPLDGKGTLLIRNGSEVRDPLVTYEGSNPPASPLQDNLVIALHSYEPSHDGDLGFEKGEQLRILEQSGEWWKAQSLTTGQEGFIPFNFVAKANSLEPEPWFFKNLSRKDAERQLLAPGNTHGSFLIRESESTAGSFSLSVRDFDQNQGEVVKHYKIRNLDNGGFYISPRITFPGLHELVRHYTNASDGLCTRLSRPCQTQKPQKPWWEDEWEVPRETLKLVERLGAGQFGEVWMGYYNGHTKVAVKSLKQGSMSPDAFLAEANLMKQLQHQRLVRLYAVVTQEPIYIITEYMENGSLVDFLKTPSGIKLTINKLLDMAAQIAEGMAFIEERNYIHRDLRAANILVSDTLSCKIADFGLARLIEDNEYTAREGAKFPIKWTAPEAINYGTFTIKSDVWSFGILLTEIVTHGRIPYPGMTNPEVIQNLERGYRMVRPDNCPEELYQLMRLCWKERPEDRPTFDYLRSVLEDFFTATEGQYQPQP
Sequence of Cytochrome P450 3A4 (P08684 whole entry): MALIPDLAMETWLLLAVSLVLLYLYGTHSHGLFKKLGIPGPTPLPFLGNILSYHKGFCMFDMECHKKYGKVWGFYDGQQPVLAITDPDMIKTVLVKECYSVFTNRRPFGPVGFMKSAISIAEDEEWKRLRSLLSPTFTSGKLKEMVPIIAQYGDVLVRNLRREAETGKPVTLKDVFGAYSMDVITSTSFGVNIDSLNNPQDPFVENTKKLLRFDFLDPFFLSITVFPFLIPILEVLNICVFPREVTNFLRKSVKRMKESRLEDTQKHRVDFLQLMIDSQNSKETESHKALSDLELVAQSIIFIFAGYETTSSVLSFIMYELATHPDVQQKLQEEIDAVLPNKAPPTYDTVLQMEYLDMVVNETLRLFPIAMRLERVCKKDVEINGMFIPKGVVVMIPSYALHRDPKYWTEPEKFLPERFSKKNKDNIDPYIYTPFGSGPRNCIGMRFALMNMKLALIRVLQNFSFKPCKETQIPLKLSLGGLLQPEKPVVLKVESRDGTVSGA
Sequence of Serine/threonine-protein kinase PLK3 (Q9H4B4 whole entry): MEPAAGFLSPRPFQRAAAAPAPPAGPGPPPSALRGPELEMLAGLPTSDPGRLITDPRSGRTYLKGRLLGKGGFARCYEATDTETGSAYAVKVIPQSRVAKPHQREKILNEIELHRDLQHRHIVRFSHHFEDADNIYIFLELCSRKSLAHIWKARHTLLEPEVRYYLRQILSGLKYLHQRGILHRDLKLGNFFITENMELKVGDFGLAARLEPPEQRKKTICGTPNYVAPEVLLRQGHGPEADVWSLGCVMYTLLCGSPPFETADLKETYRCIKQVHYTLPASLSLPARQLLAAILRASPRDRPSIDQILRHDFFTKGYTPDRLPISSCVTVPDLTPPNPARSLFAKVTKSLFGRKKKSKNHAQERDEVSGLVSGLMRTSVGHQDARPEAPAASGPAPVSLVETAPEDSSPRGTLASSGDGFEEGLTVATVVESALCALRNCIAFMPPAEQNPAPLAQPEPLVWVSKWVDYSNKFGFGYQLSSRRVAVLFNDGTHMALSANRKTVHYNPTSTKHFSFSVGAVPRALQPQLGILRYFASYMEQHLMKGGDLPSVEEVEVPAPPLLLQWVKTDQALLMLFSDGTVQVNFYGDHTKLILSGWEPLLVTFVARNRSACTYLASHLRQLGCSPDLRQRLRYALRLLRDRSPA

As to `Cc1csc(Nc2nccn3c(-c4cnn(C)c4)cnc23)n1`, the half-inhibitory concentration (IC50) entry in data set [1] was “Not Active”; in data set [2], over 10000 nM.
Regarding `Cn1cc(-c2cnc3c(Nc4cc(C5CCN(S(C)(=O)=O)CC5)ns4)nccn23)cn1`, the results for the half-maximal inhibitory concentration (IC50) in data set [1] (read-out: IC50) and in [2] were 110 nM and 170 nM, respectively.
For `Cc1cc(Nc2nc(-c3cccnc3)cn3c(-c4cn[nH]c4)cnc23)sn1`, the half-inhibitory concentration (IC50) in data set [1] (read-out: IC50) was 62 nM; in data set [2] it was 8 nM. Besides, in data set [3], the EC50 is over 10000 nM.
As to `Cc1cc(Nc2nc(SCCN(C)C)cn3c(-c4cn[nH]c4)cnc23)sn1`, the concentration for a half-maximal effect (EC50) in data set [3] is over 10000 nM.
`Cc1cc(Nc2nc(CCN)cn3c(-c4cn[nH]c4)cnc23)sn1`: the half-inhibitory concentration (IC50) in [1] (read-out: IC50) was determined as 33 nM; in [2] it was 83 nM. In data set [3], the concentration for a half-maximal effect (EC50) is over 10000 nM.
For the compound `Cc1cc(Nc2nc(C(F)(F)F)cn3c(-c4cn[nH]c4)cnc23)sn1`, the values for the IC50 in [1] (read-out: IC50) and in data set [2] were 252 nM and 27 nM, respectively. Besides, the EC50 in data set [3] was over 10000 nM.
For `Cc1cc(Nc2nc(SC(C)(C)C)cn3c(-c4cn[nH]c4)cnc23)sn1`, in data set [1] (read-out: IC50), the concentration for half-maximal inhibition (IC50) came out at 272 nM. In addition, the concentration giving a half-maximal response (EC50) in [3] is 5600 nM.
With `Cc1cc(Nc2nc(C3CC3)cn3c(-c4cn[nH]c4)cnc23)sn1`, the results for the half-maximal inhibitory concentration (IC50) in data set [1] (read-out: IC50) and in data set [2] were 51 nM and 17 nM, respectively. The EC50 in data set [3] stood at 2600 nM.
For `O=S(=O)(c1ccc(Nc2nccn3c(-c4cn[nH]c4)cnc23)cc1)N1CCOCC1`, the results for the IC50 in data set [1] (read-out: IC50) and in data set [2] were 120 nM and 81 nM, respectively.
Take `Cc1cc(Nc2nc(C)cn3c(-c4cn[nH]c4)cnc23)sn1`: the 50% inhibitory concentration (IC50) in data set [1] (read-out: IC50) is at most 13 nM. In addition, a half-maximal effect in data set [3] (EC50) was put at 250 nM.
With `CN(C)c1cccc(Nc2nccn3c(-c4cnn(C)c4)cnc23)c1`, the IC50 result in data set [1] was “Not Active”; in data set [2], over 10000 nM.
For `CC(C)c1cc(Nc2nccn3c(-c4cnn(C)c4)cnc23)sn1`, the figures for the 50% inhibitory concentration (IC50) in data set [1] (read-out: IC50) and in [2] were 700 nM and 640 nM, respectively.
For `CSc1cn2c(-c3cn[nH]c3)cnc2c(Nc2cc(C)ns2)n1`, the IC50 in data set [1] (read-out: IC50) was at most 13 nM; in [4] it was over 10000 nM; in data set [5] it was 167 nM; in data set [6], 187 nM; in [7], over 10000 nM; in data set [8], over 10000 nM. Also, the 50% inhibitory concentration (IC50) in [19] was over 10000 nM; in [20], over 10000 nM; in data set [21], over 10000 nM; in [22] it was 468 nM; in data set [23], over 10000 nM; in [24], over 10000 nM. In addition, the IC50 in data set [25] was over 10000 nM; in data set [26] it was 785 nM; in data set [27] it was over 10000 nM; in data set [28], 1310 nM; in data set [29], over 10000 nM; in data set [30], 36 nM. Moreover, the EC50 in data set [3] worked out at 600 nM. This compound had a bioavailability in data set [9] of 4%. Further, the concentration in solution in [10] (solubility) was 25 µM (≈ 8.59 µg/mL). The clearance in [11] was 89 mL/min/kg. Besides, the hepatocyte CLint in [12] stood at 49.7 µL/min/1e6 cells. Also, the Papp A→B in data set [13] amounted to 63.3 ×10⁻⁶ cm/s. In addition, the fraction unbound in data set [14] is 0.006. Besides, the inhibition at 1.5 ug/ml in [15] came to 8.7%. In addition, the INH in [16], in data set [17] and in data set [18] was over 20 µM in each case.
As to `Cc1cc(Nc2nc(Sc3ccc(F)cc3)cn3c(-c4cn[nH]c4)cnc23)sn1`, the IC50 in [1] (read-out: IC50) came to 129 nM. The same compound came in with an EC50 in data set [3] of 2500 nM.
With `Cc1cc(Nc2nc([S+](C)[O-])cn3c(-c4cn[nH]c4)cnc23)sn1` (racemic), the values for the half-maximal inhibitory concentration (IC50) in data set [1] (read-out: IC50) and in [2] were 185 nM and 30 nM, respectively. The concentration giving a half-maximal response (EC50) in data set [3] is over 10000 nM.
For `Cc1cc(Nc2nccn3c(-c4cnn(C)c4)cnc23)sn1`, the values for the 50% inhibitory concentration (IC50) in data set [1] (read-out: IC50) and in data set [2] were 360 nM and 570 nM, respectively.
As for `CN(C)S(=O)(=O)c1ccc(Nc2nccn3c(-c4cnn(C)c4)cnc23)cc1`, the results for the IC50 entry in [1] and in data set [2] were “Not Active” and 3700 nM, respectively.
With `Cn1cc(-c2cnc3c(Nc4cc(C5CCNCC5)ns4)nccn23)cn1`, the half-inhibitory concentration (IC50) in data set [1] (read-out: IC50) came to 200 nM; in [2] it was 1600 nM.
Regarding `Cc1cc(Nc2nc(CN3CCOCC3)cn3c(-c4cn[nH]c4)cnc23)sn1`, the half-inhibitory concentration (IC50) in data set [1] (read-out: IC50) was found to be 110 nM; in [2] it was 50 nM. Further, in data set [3], the EC50 was over 10000 nM.
As for `CCSc1cn2c(-c3cn[nH]c3)cnc2c(Nc2cc(C)ns2)n1`, the IC50 in [1] (read-out: IC50) amounted to 24 nM.
Take `Cc1cc(Nc2nc(C#N)cn3c(-c4cn[nH]c4)cnc23)sn1`: the results for the concentration for half-maximal inhibition (IC50) in [1] (read-out: IC50) and in data set [2] were 219 nM and 46 nM, respectively. Besides, in [3], the EC50 is over 10000 nM.
Turning to `Cc1cc(Nc2nccn3c(-c4cn[nH]c4)cnc23)sn1`, the IC50 was at most 13 nM in data set [1] (read-out: IC50) and at most 4 nM in data set [2]. This compound returned an EC50 in data set [3] of 1300 nM.
Consider `CS(=O)(=O)N1CCC(c2cc(Nc3nccn4c(-c5cn[nH]c5)cnc34)sn2)CC1`, for which the IC50 in data set [1] (read-out: IC50) stood at 18 nM; in [2], 6 nM. In data set [3], this compound yielded an EC50 of 1300 nM.
Take `Cc1nsc(Nc2nccn3c(-c4cnn(C)c4)cnc23)n1`: the IC50 entry in data set [1] is “Not Active”; in data set [2], over 10000 nM.
As to `Cc1csc(Nc2nccn3c(-c4cnn(C)c4)cnc23)c1`, the concentration for half-maximal inhibition (IC50) was 3000 nM in data set [1] (read-out: IC50) and 2500 nM in data set [2].
The matching figures for `Cc1cc(Nc2nc(S(C)(=O)=O)cn3c(-c4cn[nH]c4)cnc23)sn1`: over 3000 nM and 603 nM.
As for `CCc1cn2c(-c3cn[nH]c3)cnc2c(Nc2cc(C)ns2)n1`, in [1] (read-out: IC50), the IC50 was at most 13 nM. For the same compound, the response in data set [3] was half-maximal at 850 nM (EC50).
